Results on 9 molecules are retold here after US20110059033A1, “ULTRAVIOLET ABSORBING COMPOSITION” (FUJIFILM Corporation, priority 2009, published 2011).

One data set is described as follows: Maximum absorption wavelength (λmax) of the illustrative compounds in solvent. In kind it is physicochemical. The note with it: EtOAc.
Take `CCCCC(CC)C(=O)Oc1ccc(OC(=O)C(CC)CCCC)c2c1SC(=C(C#N)C#N)S2` (stereo not drawn) [S-17]: the “maximum absorption wavelength (λmax)” value is 363 nm.

`CCCCC(CC)COc1ccc(OCC(CC)CCCC)c2c1SC(=C(C#N)C#N)S2` (stereo not drawn) [S-26]: the “maximum absorption wavelength (λmax)” value was found to be 369 nm.

Regarding `CCCCC(CC)COc1ccc(OCC(CC)CCCC)c2c1SC(=C(C#N)C(=O)C(C)(C)C)S2` (stereo not drawn) [S-06], the “maximum absorption wavelength (λmax)” value amounted to 382 nm.

For the molecule `CCCCC(CC)C(=O)Oc1ccc(OC(=O)C(CC)CCCC)c2c1SC(=C(C#N)C(=O)C(C)(C)C)S2` (stereo not drawn) [S-01], the “maximum absorption wavelength (λmax)” value was found to be 375 nm.

In the case of `CCCCC(CC)C(=O)Oc1ccc(OC(=O)C(CC)CCCC)c2c1SC(=C(C#N)C(N)=O)S2` (stereo not drawn) [S-20], the “maximum absorption wavelength (λmax)” value came out at 357 nm.

`CC(CCOc1ccc(OCCC(C)CC(C)(C)C)c2c1SC(=C(C#N)C(=O)C(C)(C)C)S2)CC(C)(C)C` (stereo not drawn) [S-28]: the “maximum absorption wavelength (λmax)” value stood at 382 nm.

On to `CC(C)(C)C(=O)C(C#N)=C1Sc2c(OCCO)ccc(OCCO)c2S1` [S-29], for which the “maximum absorption wavelength (λmax)” value stood at 382 nm.

Regarding `CC(CCOc1ccc(OCCC(C)CC(C)(C)C)c2c1SC(=C(C#N)C#N)S2)CC(C)(C)C` (stereo not drawn) [S-27], the “maximum absorption wavelength (λmax)” value is 369 nm.

Staying with this data set, now noted: MeOH.
For `N#CC(C#N)=C1Sc2c(OCCO)ccc(OCCO)c2S1` [S-30], the “maximum absorption wavelength (λmax)” value was found to be 369 nm.
